One may read the Ki as a dissociation constant, usually derived from enzyme kinetics or from competition with a known ligand. Broadly, the IC50 is the concentration that gives 50% inhibition.

Like-named read-outs stand apart in the source and are kept apart here.

Experiment [1] concerns the target T1, human recombinant dopamine D4 receptor (Homo sapiens, UniProt P21917).
T1 construct: expressed in transfected cells
T1 sequence (P21917 1-419): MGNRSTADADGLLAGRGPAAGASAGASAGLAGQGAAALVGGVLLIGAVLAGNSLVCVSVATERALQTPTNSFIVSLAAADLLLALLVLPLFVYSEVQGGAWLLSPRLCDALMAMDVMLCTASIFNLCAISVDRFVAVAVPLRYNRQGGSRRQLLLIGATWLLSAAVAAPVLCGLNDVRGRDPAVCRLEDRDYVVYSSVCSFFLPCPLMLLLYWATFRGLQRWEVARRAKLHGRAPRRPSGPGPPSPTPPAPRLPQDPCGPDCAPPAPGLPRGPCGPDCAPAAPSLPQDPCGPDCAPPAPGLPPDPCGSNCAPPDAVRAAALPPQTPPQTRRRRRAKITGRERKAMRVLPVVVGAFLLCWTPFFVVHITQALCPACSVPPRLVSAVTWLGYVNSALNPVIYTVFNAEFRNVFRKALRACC
The experiment is described as follows: Binding affinity at dopamine D4 receptor. To be noted: for Ki: calculated inhibition constant, in parentheses; for IC50: concentration required to inhibit 50% specific binding.

For experiment [2], the target named is T2, human recombinant serotonin 5-HT2A receptor (Homo sapiens, UniProt P28223).
T2 construct: expressed in transfected cells
T2 sequence (P28223 whole entry): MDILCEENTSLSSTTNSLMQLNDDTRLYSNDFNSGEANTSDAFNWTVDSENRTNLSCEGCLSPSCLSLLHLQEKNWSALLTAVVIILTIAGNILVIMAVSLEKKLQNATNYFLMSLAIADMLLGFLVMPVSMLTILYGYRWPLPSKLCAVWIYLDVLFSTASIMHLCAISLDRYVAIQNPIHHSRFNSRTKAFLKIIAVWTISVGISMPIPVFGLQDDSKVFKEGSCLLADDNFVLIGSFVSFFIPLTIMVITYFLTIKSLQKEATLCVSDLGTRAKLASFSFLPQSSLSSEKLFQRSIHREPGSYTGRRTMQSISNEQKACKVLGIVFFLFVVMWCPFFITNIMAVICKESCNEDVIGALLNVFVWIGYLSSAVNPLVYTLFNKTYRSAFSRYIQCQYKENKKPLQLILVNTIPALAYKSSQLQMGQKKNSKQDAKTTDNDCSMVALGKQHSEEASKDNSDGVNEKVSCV
The experiment is described as follows: Binding affinity at serotonin 5-HT2A receptor. Particulars: for selectivity for 5-HT2A receptors versus D2 receptors (in words): conclusion from Table 1; for 5-HT2A Selectivity (D2/5-HT2A): ratio of D2 to 5-HT2A IC50.

The target in experiment [3] is T3, human recombinant dopamine D2 receptor (Homo sapiens, UniProt P14416).
T3 construct: expressed in transfected cells
T3 sequence (P14416 whole entry): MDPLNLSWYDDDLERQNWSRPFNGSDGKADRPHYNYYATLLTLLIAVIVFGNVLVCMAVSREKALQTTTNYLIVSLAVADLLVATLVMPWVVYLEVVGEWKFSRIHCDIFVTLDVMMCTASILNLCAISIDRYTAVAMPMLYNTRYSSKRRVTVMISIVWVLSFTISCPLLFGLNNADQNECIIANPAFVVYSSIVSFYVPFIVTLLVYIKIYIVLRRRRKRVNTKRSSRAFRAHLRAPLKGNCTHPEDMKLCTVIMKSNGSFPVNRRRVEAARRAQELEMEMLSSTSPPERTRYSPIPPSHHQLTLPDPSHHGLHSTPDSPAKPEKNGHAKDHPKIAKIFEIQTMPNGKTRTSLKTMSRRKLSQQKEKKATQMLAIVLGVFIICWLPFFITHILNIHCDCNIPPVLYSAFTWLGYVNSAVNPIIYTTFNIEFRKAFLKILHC
The experiment is described as follows: Binding affinity at dopamine D2 receptor. Particulars: for Ki: calculated inhibition constant, in parentheses; for IC50: concentration required to inhibit 50% specific binding.

Experiment [4] deals with non-selective α1 receptor from rat cerebral cortex. The experiment is described as follows: Binding affinity at non-selective α1 receptor. Particulars: for Ki: calculated inhibition constant, in parentheses; for IC50: concentration required to inhibit 50% specific binding.
[5] abbreviates: calculated inhibition constant, in parentheses, human recombinant, read-out: Ki by Receptor 5-HT2A.
Setting [6] is: concentration required to inhibit 50% specific binding, human recombinant, read-out: IC50 by Receptor 5-HT2A.

Regarding `O=C1CNC(=O)N1CCN1CCC(c2cn(-c3ccc(F)cc3)c3ccc(Cl)cc23)CC1` [5-Oxo, 1-[2-[4-[5-chloro-1-(4-fluorophenyl)-1H-indol-3-yl]piperidin-1-yl]ethyl]midazolidin-2,5-dione], the Ki in experiment [1] is 96 nM; in experiment [2] (setting [5]), 11 nM; in experiment [3] it was 11 nM; in experiment [4], 3.3 nM. The IC50 in experiment [1] was determined as 315 nM; in experiment [2] (setting [6]), 18 nM; in experiment [3] it was 44 nM; in experiment [4], 12 nM. Moreover, the “selectivity for 5-HT2A receptors versus D2 receptors (in words)” value in experiment [2] is “greater selectivity for 5-HT2A receptors than for D2 receptors”. Besides, in experiment [2], the “5-HT2A Selectivity (D2/5-HT2A)” value was found to be 2.4.
Take `Fc1ccc(-n2cc(C3=CCNCC3)c3cc(Cl)ccc32)cc1` [Dehydro-Nor]: the Ki in experiment [1] was 116 nM; in experiment [2] it was 16 nM; in experiment [3], 8.8 nM; in experiment [4], 28 nM. In addition, the IC50 in experiment [1] is 379 nM; in experiment [2], 25 nM; in experiment [3], 34 nM; in experiment [4], 102 nM. The “5-HT2A Selectivity (D2/5-HT2A)” value in experiment [2] is 1.4.
In the case of `Fc1ccc(-n2cc(C3=CCNCC3)c3cc(Cl)ccc32)cc1` [Nor, 5-chloro-1-(4-fluorophenyl)-3-(1,2,3 6-tetrahydropvridin-4-yl)indole], the Ki in experiment [1] is 333 nM; in experiment [2] (setting [5]), 11 nM; in experiment [3] it was 20 nM; in experiment [4], 13 nM. Moreover, the IC50 in experiment [1] worked out at 1090 nM; in experiment [2] (setting [6]), 17 nM; in experiment [3], 78 nM; in experiment [4], 49 nM. In addition, the “selectivity for 5-HT2A receptors versus D2 receptors (in words)” value in experiment [2] was “greater selectivity for 5-HT2A receptors than for D2 receptors”. Besides, in experiment [2], the “5-HT2A Selectivity (D2/5-HT2A)” value amounted to 4.6.
With `COc1cc2nc(N3CCN(C(=O)c4ccco4)CC3)nc(N)c2cc1OC` [Prazosin, reference compound], in experiment [4], the Ki is 0.087 nM and the IC50 was found to be 0.32 nM.
Take `O=C1NCCN1CCN1CCC(c2cn(-c3ccc(F)cc3)c3ccc(Cl)cc23)CC1` [Sertindole, 1-[2-[4-[5-chloro-1-(4-fluorophenyl)-1H-indol-3-yl]-1-piperidinyl]ethyl]-2-imidazolidinone, reference compound]: in experiment [4], the Ki was 1.7 nM and the IC50 turned out to be 6.2 nM.

(Values after patent publication US6489341B1 (Sepracor Inc., priority 1999, dated 2002).)
